Our source for the IC50 values is BindingDB's records for doi:10.1016/j.chembiol.2016.06.016 (Massachusetts Institute of Technology, 2016).

Test [1] deals with T1, Cytochrome b (Candida albicans, UniProt I2BJW5).
T1 sequence (I2BJW5 whole entry): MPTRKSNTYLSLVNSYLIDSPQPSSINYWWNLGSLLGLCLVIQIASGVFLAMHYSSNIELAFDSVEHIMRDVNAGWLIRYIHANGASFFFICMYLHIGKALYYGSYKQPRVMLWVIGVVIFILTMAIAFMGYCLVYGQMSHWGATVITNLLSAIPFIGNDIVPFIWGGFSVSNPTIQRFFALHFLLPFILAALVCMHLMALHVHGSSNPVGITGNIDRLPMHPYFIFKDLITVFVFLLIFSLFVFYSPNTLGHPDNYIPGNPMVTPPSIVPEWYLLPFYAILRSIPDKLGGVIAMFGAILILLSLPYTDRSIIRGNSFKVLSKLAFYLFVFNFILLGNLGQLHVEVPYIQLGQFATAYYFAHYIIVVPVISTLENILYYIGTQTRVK
The test is described as follows: Cytochrome b Enzyme Assay. Particulars: pH 7.4; 25 °C. The protocol:
(§1) Reaction plates were incubated at room temperature for 10 min before reading absorbance at 550 nm. Absolute IC50 values were calculated in GraphPad Prism 6.0.

For test [2], the target named is Cytochrome b (Homo sapiens, UniProt P00156). The test is described as follows: Cytochrome b Enzyme Assay. The following applies: pH 7.4; 25 °C. As to the method:
as §1

SMILES strings stand for the structures. Bounds are passed on as bounds.

Sequence of Cytochrome b (Homo sapiens, UniProt P00156) (P00156 whole entry): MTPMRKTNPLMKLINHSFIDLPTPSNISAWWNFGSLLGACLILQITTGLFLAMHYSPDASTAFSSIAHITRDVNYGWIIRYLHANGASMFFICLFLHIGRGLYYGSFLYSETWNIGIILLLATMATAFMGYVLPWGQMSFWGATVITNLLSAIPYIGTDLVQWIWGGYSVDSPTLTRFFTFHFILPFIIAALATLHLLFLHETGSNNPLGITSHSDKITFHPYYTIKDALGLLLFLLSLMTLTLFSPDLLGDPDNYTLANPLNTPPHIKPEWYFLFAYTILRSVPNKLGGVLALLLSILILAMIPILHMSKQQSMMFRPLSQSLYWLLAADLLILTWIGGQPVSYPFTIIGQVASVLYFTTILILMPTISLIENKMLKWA

`COC(=O)Cn1nc(-c2cc(F)ccc2F)c2ccccc21` [Inz-61]: the concentration for half-maximal inhibition (IC50) in test [1] was 0.891 µM; in test [2], more than 64 µM.

As to `COC(=O)Cn1ncc2ccccc21` [Inz-49], the half-inhibitory concentration (IC50) in test [1] and in test [2] was more than 64 µM in each case.

For `Cc1nnc(Cn2nc(-c3ccccc3)c3ccccc32)o1` [Inz-32], the IC50 in test [1] and in test [2] was more than 64 µM in each case.

Turning to `O=C(Cn1nc(-c2ccccc2)c2ccccc21)NO` [Inz-88], the IC50 in test [1] and in test [2] was more than 64 µM throughout.

With `COC(=O)Cn1nc(-c2cc(F)ccc2C)c2ccccc21` [Inz-62], the figures for the IC50 in test [1] and in test [2] were 4.7 µM and more than 64 µM, respectively.

As for `COC(=O)Cn1nc(-c2c(C)cccc2C)c2ccccc21` [Inz-58], the concentration for half-maximal inhibition (IC50) in test [1] and in test [2] was more than 64 µM in each case.

As to `COC(=O)Cn1nc(-c2cccnc2)c2ccccc21` [Inz-14], the concentration for half-maximal inhibition (IC50) in test [1] and in test [2] was more than 64 µM each time.

Take `COC(=O)Cn1nc(-c2cccc(OCCN(C(C)C)C(C)C)c2)c2ccccc21` [Inz-67]: the IC50 came out at 2.4 µM in test [1] and 19.3 µM in test [2].

With `COC(=O)Cn1nc(-c2cccc(OCCC(C)C)c2)c2ccccc21` [Inz-57], the figures for the half-maximal inhibitory concentration (IC50) in test [1] and in test [2] were 0.156 µM and 4.77 µM, respectively.

On to `O=C(O)Cn1nc(-c2cccc(OCc3ccccc3)c2)c2ccccc21` [Inz-47], for which the half-maximal inhibitory concentration (IC50) in test [1] and in test [2] was more than 64 µM each time.

Turning to `COC(=O)Cn1nc(-c2cc(OCc3ccccc3)ccc2F)c2ccccc21` [Inz-68], the concentration for half-maximal inhibition (IC50) in test [1] amounted to 0.0352 µM; in test [2] it was 1.66 µM.

Consider `CN(O)C(=O)Cn1nc(-c2ccccc2)c2ccccc21` [Inz-87], for which the IC50 in test [1] and in test [2] was more than 64 µM each time.

For the molecule `COC(=O)Cn1nc(-c2cccc(OCc3ccccc3)c2)c2ccccc21` [Inz-42], the concentration for half-maximal inhibition (IC50) was 7.24 µM in test [1] and more than 64 µM in test [2].

Turning to `COC(=O)Cn1c(C)c(-c2cccc(OCc3ccccc3)c2)c2ccccc21` [Inz-56], the IC50 in test [1] and in test [2] was more than 64 µM throughout.

Turning to `c1ccc(-c2nn(Cc3cncnc3)c3ccccc23)cc1` [Inz-93], the concentration for half-maximal inhibition (IC50) in test [1] and in test [2] was more than 64 µM each time.

On to `c1ccc(-c2nn(Cc3nccs3)c3ccccc23)cc1` [Inz-30], for which the IC50 in test [1] and in test [2] was more than 64 µM in each case.

With `COC(=O)Cn1nc(-c2ccccc2OCc2ccccc2)c2ccccc21` [Inz-55], the IC50 in test [1] and in test [2] was more than 64 µM throughout.

For `COC(=O)Cn1nc(-c2ccccc2)c2cccc(C)c21` [Inz-3], the IC50 in test [1] was 1.01 µM; in test [2], 21.3 µM.

As for `c1ccc(-c2nn(Cc3ncon3)c3ccccc23)cc1` [Inz-78], the figures for the IC50 in test [1] and in test [2] were 14.8 µM and more than 64 µM, respectively.

On to `COC(=O)Cn1ccc(-c2cccc(OCc3ccccc3)c2)n1` [Inz-48], for which the IC50 in test [1] and in test [2] was more than 64 µM in each case.

Turning to `c1ccc(-c2nn(Cc3cncs3)c3ccccc23)cc1` [Inz-29], the concentration for half-maximal inhibition (IC50) in test [1] and in test [2] was more than 64 µM in each case.

`CS(=O)(=O)N(c1ccc2c(-c3cc(C(F)(F)F)ccc3F)nn(Cc3cnccn3)c2c1)S(C)(=O)=O` [Inz-102]: the IC50 in test [1] and in test [2] was more than 64 µM in each case.

Regarding `FC(F)(F)Cn1nc(-c2ccccc2)c2ccccc21` [Inz-28], the concentration for half-maximal inhibition (IC50) in test [1] and in test [2] was more than 64 µM in each case.

In the case of `O=C(O)Cn1nc(-c2ccccc2)c2ccccc21` [Inz-24], the half-inhibitory concentration (IC50) in test [1] and in test [2] was more than 64 µM in each case.

Regarding `Fc1ccc(C(F)(F)F)cc1-c1nn(Cc2cnccn2)c2c(F)cccc12` [Inz-39], the IC50 in test [1] was determined as 0.141 µM; in test [2], 10.8 µM.

Regarding `COC(=O)Cn1cc(-c2cccc(OCc3ccccc3)c2)c2ccccc21` [Inz-50], the half-inhibitory concentration (IC50) was 13.1 µM in test [1] and more than 64 µM in test [2].

In the case of `CC(=O)Nc1ccc2c(-c3cc(C(F)(F)F)ccc3F)nn(Cc3cnccn3)c2c1` [Inz-101], the IC50 in test [1] and in test [2] was more than 64 µM throughout.

For `Cc1cccc2c(-c3cc(C(F)(F)F)ccc3F)nn(Cc3cnccn3)c12` [Inz-38], the IC50 in test [1] is 0.602 µM; in test [2], more than 64 µM.

Consider `Cn1nc(-c2cccc(OCc3ccccc3)c2)c2ccccc21` [Inz-44], for which the IC50 in test [1] and in test [2] was more than 64 µM throughout.

With `COC(=O)Cn1nc(-c2cccc(C(F)(F)F)c2)c2ccccc21` [Inz-10], the 50% inhibitory concentration (IC50) came to 1.06 µM in test [1] and 8.65 µM in test [2].

On to `COC(=O)Cn1nc(-c2cccc(OC)c2)c2ccccc21` [Inz-6], for which the concentration for half-maximal inhibition (IC50) in test [1] was 1.52 µM; in test [2] it was 28.4 µM.

With `c1ccc(-c2nn(Cc3nn[nH]n3)c3ccccc23)cc1` [Inz-33], the half-inhibitory concentration (IC50) in test [1] and in test [2] was more than 64 µM in each case.

Consider `COC(=O)Cn1nc(-c2ccncc2)c2ccccc21` [Inz-92], for which the IC50 in test [1] and in test [2] was more than 64 µM in each case.

In the case of `COC(=O)Cn1nc(-c2cccc([N+](=O)[O-])c2)c2ccccc21` [Inz-12], the IC50 in test [1] is 6.07 µM; in test [2], more than 64 µM.

In the case of `Fc1ccc(C(F)(F)F)cc1-c1nn(Cc2cnccn2)c2ccncc12` [Inz-98], the figures for the IC50 in test [1] and in test [2] were 20.4 µM and more than 64 µM, respectively.

For `COC(=O)Cn1nc(-c2cccc(OCC3CCCCC3)c2)c2ccccc21` [Inz-9], the IC50 in test [1] was found to be 0.087 µM; in test [2] it was 0.889 µM.

`CNc1ccc2c(-c3cc(C(F)(F)F)ccc3F)nn(Cc3cnccn3)c2c1` [Inz-103]: the results for the IC50 in test [1] and in test [2] were 2.13 µM and more than 64 µM, respectively.

With `COC(=O)Cn1nc(-c2cc(C(F)(F)F)ccc2F)c2c(C)cccc21` [Inz-23], the IC50 is 10.8 µM in test [1] and more than 64 µM in test [2].

Regarding `COC(=O)Cn1nc(-c2ccccc2C#N)c2ccccc21` [Inz-20], the 50% inhibitory concentration (IC50) in test [1] and in test [2] was more than 64 µM in each case.

With `COC(=O)Cn1nc(-c2cc(OCCCC3CCCCC3)ccc2F)c2cccc(C)c21` [Inz-80], the 50% inhibitory concentration (IC50) worked out at 0.0388 µM in test [1] and 0.79 µM in test [2].

For the molecule `c1ccc(-c2nn(Cc3c[nH]nn3)c3ccccc23)cc1` [Inz-79], the concentration for half-maximal inhibition (IC50) in test [1] and in test [2] was more than 64 µM each time.

Turning to `Cn1nnc(Cn2nc(-c3cc(C(F)(F)F)ccc3F)c3ccccc32)n1` [Inz-83], the IC50 in test [1] was 1.22 µM; in test [2] it was more than 64 µM.

`CON(C)C(=O)Cn1nc(-c2ccccc2)c2ccccc21` [Inz-26]: the 50% inhibitory concentration (IC50) in test [1] and in test [2] was more than 64 µM in each case.

With `Nc1ccc2c(-c3cc(C(F)(F)F)ccc3F)nn(Cc3cnccn3)c2c1` [Inz-100], the values for the IC50 in test [1] and in test [2] were 5.48 µM and more than 64 µM, respectively.

In the case of `CS(=O)(=O)Cn1nc(-c2ccccc2)c2ccccc21` [Inz-27], the IC50 in test [1] and in test [2] was more than 64 µM each time.
